*1 amine or outer side, *2 acyl side, *3 side chain or, on linkers, in order; H or OH if unused. Where a SMILES comes first, the peptide text is derived from it. Bridges are numbered along the chain shown (N, C = ends). [ ]: non-standard residue; d: D form. The star is where a group is joined. C20 diacid = O=C(O)CCCCCCCCCCCCCCCCCCC(=O)*; γGlu = O=C(O)[C@H](CCC(=O)[*:2])N[*:1]; Hyp = O=C(O)[C@@H]1C[C@@H](O)CN1; NMeI = CC[C@H](C)[C@H](NC)C(=O)O; Sar = CNCC(=O)O

The target of series [1] is T1, human calcitonin receptor (hCTR2) (Homo sapiens, UniProt P30988).
T1 construct: expressed in transfected cells
T1 sequence (P30988 25-474): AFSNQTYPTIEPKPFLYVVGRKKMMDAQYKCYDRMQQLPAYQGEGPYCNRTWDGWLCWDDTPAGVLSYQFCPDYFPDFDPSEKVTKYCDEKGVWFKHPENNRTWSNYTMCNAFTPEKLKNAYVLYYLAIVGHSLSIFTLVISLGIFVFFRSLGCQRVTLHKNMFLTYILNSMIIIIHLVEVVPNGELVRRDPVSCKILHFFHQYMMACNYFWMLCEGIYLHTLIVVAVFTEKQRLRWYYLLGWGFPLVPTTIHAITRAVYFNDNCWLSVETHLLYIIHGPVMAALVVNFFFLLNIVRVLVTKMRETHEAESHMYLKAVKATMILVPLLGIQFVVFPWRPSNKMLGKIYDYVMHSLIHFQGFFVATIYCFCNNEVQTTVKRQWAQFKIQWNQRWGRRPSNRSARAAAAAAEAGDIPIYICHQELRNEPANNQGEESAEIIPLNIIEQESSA
In words: hCTR2 cAMP assay (AlphaScreen) in COS7 cells. The class given is cell-based. The note with it: cAMP induction, COS7 cells expressing hCTR2; Table 1; read-out: hCTR2 EC50. Put shortly:
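Stable hCTR2 clone in RAMP-naïve COS7 cells stimulated 15 min at 37 °C with increasing peptide concentrations in Tyrode buffer pH 7.4 containing IBMX and 0.1% casein. cAMP in lysates measured by AlphaScreen; EC50 from 4-parameter logistic fit.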
(cAMP levels reflect the balance of adenylyl cyclase and phosphodiesterase activity.)

The nature of series [2]: Assessment of physical stability (Thioflavin T fibrillation). It is filed as physicochemical. On the set-up: key: FND = fibrillation not detected; FD = fibrillation detected. The note with it: 1 mg/ml, 40° C., ThT; for Fibrillation pH 4.0 (Ac): 50 mM acetate buffer pH 4.0, 96 hours; for Fibrillation pH 7.0 (His): 50 mM histidine buffer pH 7.0, 96 hours; for Fibrillation pH 7.0 (Phos.): 50 mM phosphate buffer pH 7.0, 96 hours. Put shortly:
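1 mg/ml peptide with 40 μM ThT in 50 mM phosphate pH 7.0, 50 mM histidine pH 7.0 or 50 mM acetate pH 4.0, in triplicate. Fluorescence read every 10 min after 300 s agitation over 96 h at 40 °C. Lag-time (h) is the intersection of linear fits to stable and growth phases.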

A short description of series [3]: Assessment of chemical stability (RP-HPLC normalized purity). It is filed as physicochemical. The note with it: 7 days, 40° C., Table 1; for Normalized purity after 7 days, 40° C., pH 4: pH 4, 0.2 mg/ml; for Normalized purity after 7 days, 40° C., pH 6: pH 6, 0.2 mg/ml; for Normalized purity after 7 days, 40° C., pH 7.5: pH 7.5, 0.2 mg/ml; for Normalized purity after 7 days, 40° C., pH 9: pH 9, 0.2 mg/ml. A digest of the protocol: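 Peptides at 0.2 mg/ml in water adjusted to pH 4, 6, 7.5 or 9, incubated at 40° C for 7 days. Main-peak area-% by RP-HPLC (C8 ammonium formate or C18 TFA gradient, UV 220 nm), normalized to T=0 as 100.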

Broadly, the EC50 is the concentration giving half of the maximal effect. As to `CC[C@H](C)[C@@H](C(=O)N[C@@H](CC(C)C)C(=O)N[C@@H](CO)C(=O)N[C@@H](CO)C(=O)N[C@H](C(=O)N[C@@H](CCC(=O)O)C(=O)N[C@H](C(=O)NCC(=O)N[C@@H](CO)C(=O)N[C@@H](CC(N)=O)C(=O)N[C@H](C(=O)N1C[C@H](O)C[C@H]1C(N)=O)[C@@H](C)O)C(C)C)[C@@H](C)O)N(C)C(=O)[C@H](C)NC(=O)CN(C)C(=O)[C@H](Cc1ccccc1)NC(=O)[C@H](CCCNC(=N)N)NC(=O)[C@H](CCC(N)=O)NC(=O)[C@H](CC(C)C)NC(=O)[C@H](Cc1ccccc1)NC(=O)[C@H](Cc1c[nH]cn1)NC(=O)[C@H](C)NC(=O)[C@H](CC(C)C)NC(=O)[C@H](CCCNC(=N)N)NC(=O)[C@H](CCC(=O)O)NC(=O)[C@@H](NC(=O)[C@H](C)NC(=O)[C@@H]1CSSC[C@H](NC(=O)[C@H](CCCNC(=N)N)NC(=O)CC[C@H](NC(=O)CCCCCCCCCCCCCCCCCCC(=O)O)C(=O)O)C(=O)NCC(=O)N[C@@H]([C@@H](C)O)C(=O)N[C@@H](C)C(=O)N[C@@H]([C@@H](C)O)C(=O)N1)[C@@H](C)O` [Compound 77, [19CD]-isoGlu-R-C( )-GTAT-C( )-ATERLAHFLQRF-Gly(Me)-A-Ile(Me)-LSSTEVGSNT-Hyp-NH2] ({C20 diacid-γGlu}-RCGTATCATERLAHFLQRF[Sar]A[NMeI]LSSTEVGSNT[Hyp]-NH2; disulfide 2-7), the EC50 in series [1] was 0.16 nM. Moreover, in series [2], the “Fibrillation pH 4.0 (Ac)” value is “FND”, the “Fibrillation pH 7.0 (His)” value is listed as “FND” and the “Fibrillation pH 7.0 (Phos.)” value is “FND”. Further, in series [3], the “Normalized purity after 7 days, 40° C., pH 4” value (from here on “Normalized purity … pH 4”) is listed as “A (A = >90%)”; the “Normalized purity after 7 days, 40° C., pH 6” value (“Normalized purity … pH 6” for short) was “A (A = >90%)”; the “Normalized purity after 7 days, 40° C., pH 7.5” value (“Normalized purity … pH 7.5” for short) was “B (B = 70-90%)”; the “Normalized purity after 7 days, 40° C., pH 9” value (shortened to “Normalized purity … pH 9”) is given as “B (B = 70-90%)”.

As for `CC[C@H](C)[C@@H](C(=O)N[C@@H](CC(C)C)C(=O)N[C@@H](CO)C(=O)N[C@@H](CO)C(=O)N[C@H](C(=O)N[C@@H](CCC(=O)O)C(=O)N[C@H](C(=O)NCC(=O)N[C@@H](CO)C(=O)N[C@@H](CC(N)=O)C(=O)N[C@H](C(=O)N1C[C@H](O)C[C@H]1C(N)=O)[C@@H](C)O)C(C)C)[C@@H](C)O)N(C)C(=O)[C@H](C)NC(=O)CN(C)C(=O)[C@H](Cc1ccccc1)NC(=O)[C@H](CO)NC(=O)[C@H](CO)NC(=O)[C@H](CCCNC(=N)N)NC(=O)[C@H](CCC(N)=O)NC(=O)[C@H](CC(C)C)NC(=O)[C@H](Cc1ccccc1)NC(=O)[C@H](Cc1c[nH]cn1)NC(=O)[C@H](C)NC(=O)[C@H](CC(C)C)NC(=O)[C@H](CCCNC(=N)N)NC(=O)[C@H](CC(=O)O)NC(=O)[C@@H](NC(=O)[C@H](C)NC(=O)[C@@H]1CSSC[C@H](NC(=O)[C@H](CCCNC(=N)N)NC(=O)CC[C@H](NC(=O)CCCCCCCCCCCCCCCCCCC(=O)O)C(=O)O)C(=O)N[C@@H](CCC(N)=O)C(=O)N[C@@H]([C@@H](C)O)C(=O)N[C@@H](C)C(=O)N[C@@H]([C@@H](C)O)C(=O)N1)[C@@H](C)O` [Compound 88, [19CD]-isoGlu-R-C( )-QTAT-C( )-ATDRLAHFLQRSSF-Gly(Me)-A-Ile(Me)-LSSTEVGSNT-Hyp-NH2] ({C20 diacid-γGlu}-RCQTATCATDRLAHFLQRSSF[Sar]A[NMeI]LSSTEVGSNT[Hyp]-NH2; disulfide 2-7), the EC50 in series [1] came to 0.06 nM. For the same molecule, in series [2], the “Fibrillation pH 4.0 (Ac)” value is “FND”, the “Fibrillation pH 7.0 (His)” value is “FND” and the “Fibrillation pH 7.0 (Phos.)” value was “FND”. Besides, in series [3], the “Normalized purity … pH 4” value is reported as “A (A = >90%)”; the “Normalized purity … pH 6” value was “A (A = >90%)”; the “Normalized purity … pH 7.5” value is “A (A = >90%)”; the “Normalized purity … pH 9” value is listed as “A (A = >90%)”.

Take `CC[C@H](C)[C@@H](C(=O)N[C@@H](CC(C)C)C(=O)N[C@@H](CO)C(=O)N[C@@H](CO)C(=O)N[C@H](C(=O)N[C@@H](CCC(=O)O)C(=O)N[C@H](C(=O)NCC(=O)N[C@@H](CO)C(=O)NCC(=O)N[C@H](C(=O)N1C[C@H](O)C[C@H]1C(N)=O)[C@@H](C)O)C(C)C)[C@@H](C)O)N(C)C(=O)[C@H](C)NC(=O)CN(C)C(=O)[C@H](Cc1ccccc1)NC(=O)[C@H](CO)NC(=O)[C@H](CO)NC(=O)[C@H](CCCNC(=N)N)NC(=O)[C@H](CCC(N)=O)NC(=O)[C@H](CC(C)C)NC(=O)[C@H](Cc1ccccc1)NC(=O)[C@H](Cc1c[nH]cn1)NC(=O)[C@H](C)NC(=O)[C@H](CC(C)C)NC(=O)[C@H](CCCNC(=N)N)NC(=O)[C@H](CCC(=O)O)NC(=O)[C@@H](NC(=O)[C@H](C)NC(=O)[C@@H]1CSSC[C@H](NC(=O)[C@H](CCCNC(=N)N)NC(=O)CC[C@H](NC(=O)CCCCCCCCCCCCCCCCCCC(=O)O)C(=O)O)C(=O)N[C@@H](CCC(N)=O)C(=O)N[C@@H]([C@@H](C)O)C(=O)N[C@@H](C)C(=O)N[C@@H]([C@@H](C)O)C(=O)N1)[C@@H](C)O` [Compound 90, [19CD]-isoGlu-R-C( )-QTAT-C( )-ATERLAHFLQRSSF-Gly(Me)-A-Ile(Me)-LSSTEVGSGT-Hyp-NH2] ({C20 diacid-γGlu}-RCQTATCATERLAHFLQRSSF[Sar]A[NMeI]LSSTEVGSGT[Hyp]-NH2; disulfide 2-7): the EC50 in series [1] is 0.2 nM. In addition, in series [2], the “Fibrillation pH 4.0 (Ac)” value was “FND”, the “Fibrillation pH 7.0 (His)” value is listed as “FND” and the “Fibrillation pH 7.0 (Phos.)” value was “FND”. Further, in series [3], the “Normalized purity … pH 4” value is reported as “A (A = >90%)”; the “Normalized purity … pH 6” value was “A (A = >90%)”; the “Normalized purity … pH 7.5” value is on record as “A (A = >90%)”; the “Normalized purity … pH 9” value is “A (A = >90%)”.

(Values after US20210115104A1, “AMYLIN ANALOGUES” (Zealand Pharma A/S, priority 2015, published 2021).)
